target: T1, Human Factor D (Homo sapiens, UniProt P00746); assay: Human Factor D assay (Example 8); type: biochemical; conditions: not given
T1 construct: purified from human serum; purchased Complement Technology, Inc; host or cells: human serum
Protocol: Human Factor D (purified from human serum, Complement Technology, Inc.) at 80 nM final concentration was incubated with test compound at various concentrations for 5 minutes at room temperature in 50 mM Tris, 1M NaCl, pH 7.5. A synthetic substrate Z-L-Lys-SBzl and DTNB (Ellman's reagent) are added to final concentrations of 100 μM each. […] IC50 values are calculated by nonlinear regression of complement Factor D reaction rates as a function of test compound concentration.

T1 sequence (P00746 26-253): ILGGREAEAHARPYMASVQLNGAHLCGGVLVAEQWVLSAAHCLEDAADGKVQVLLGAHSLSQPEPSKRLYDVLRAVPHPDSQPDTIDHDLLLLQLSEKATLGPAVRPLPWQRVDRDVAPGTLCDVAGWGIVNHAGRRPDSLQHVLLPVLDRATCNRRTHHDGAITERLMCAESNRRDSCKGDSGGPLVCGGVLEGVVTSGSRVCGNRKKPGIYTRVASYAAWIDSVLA

SMILES | IC50 [µM]
CC(=O)c1cn(CC(=O)N2[C@H](C(=O)NCc3cccc(Cl)c3F)C[C@@H]3CCCC[C@@H]32)c2ccccc12 [Compound 1, (2S,3aS,7aS)-1-(2-(3-acetyl-1H-indol-1-yl)acetyl)-N-(3-chloro-2-fluorobenzyl)octa-hydro-1H-indole-2-carboxamide] | < 1
CC(=O)c1cn(CC(=O)N2C[C@H](F)[C@@H](OCC3CC3)[C@H]2C(=O)NCc2cccc(Cl)c2F)c2cc(O)ccc12 [Compound 21, (2S,3S,4S)-1-(2-(3-acetyl-6-hydroxy-1H-indol-1-yl)acetyl)-N-(3-chloro-2-fluorobenzyl)-3-(cyclopropylmethoxy)-4-fluoropyrrolidine-2-carboxamide] | < 1
O=C(c1cn(CC(=O)N2[C@@H]3C[C@@H]3C[C@H]2C(=O)NCc2cccc(Cl)c2F)c2ccccc12)C1CC1 [Compound 22, (1R,3S,5R)-N-(3-chloro-2-fluorobenzyl)-2-(2-(3-(cyclopropanecarbonyl)-1H-indol-1-yl)acetyl)-2-azabicyclo[3.1.0] hexane-3-carboxamide] | < 1
CC(=O)c1cn(CC(=O)N2CC(F)C(OCC3CC3)[C@H]2C(=O)NCc2cccc(Cl)c2F)c2cc(O)ccc12 (stereo partly drawn) [Compound 25, (2S)-1-(2-(3-acetyl-6-hydroxy-1H-indol-1-yl)acetyl)-N-(3-chloro-2-fluorobenzyl)-3-(cyclopropylmethoxy)-4-fluoropyrrolidine-2-carboxamide] | < 1
COc1ccc2c(O[C@@H]3C[C@@H](C(=O)NCc4cccc(Cl)c4F)N(C(=O)Cn4cc(C(C)=O)c5ccccc54)C3)cc(-c3ccccc3)nc2c1 [Compound 29, (2S,4R)-1-(2-(3-acetyl-1H-indol-1-yl)acetyl)-N-(3-chloro-2-fluorobenzyl)-4-(7-methoxy-2-phenylquinolin-4-yloxy)pyrrolidine-2-carboxamide] | > 10
CC(=O)c1cn(CC(=O)N2[C@H](C(=O)NCc3cccc(Cl)c3F)C[C@@H]3CCCC[C@@H]32)c2cc(O)ccc12 [Compound 35, (2S,3aS,7aS)-1-(2-(3-acetyl-6-hydroxy-1H-indol-1-yl)acetyl)-N-(3-chloro-2-fluorobenzyl)octa-hydro-1H-indole-2-carboxamide] | < 1

same assay, conditions: Table 1; Human Factor D 80 nM, substrate Z-L-Lys-SBzl; read-out: IC50

SMILES | IC50 [µM]
CC(=O)c1cn(CC(=O)N2C[C@H](F)C[C@H]2c2ncc(-c3cccc(Cl)c3)[nH]2)c2ccccc12 [Compound 11, 2-(3-acetyl-1H-indol-1-yl)-1-((2S,4R)-2-(5-(3-chlorophenyl)-1H-imidazol-2-yl)-4-fluoropyrrolidin-1-yl)ethanone] | > 10
CC(=O)c1cn(CC(=O)N2C[C@H](F)C[C@H]2c2nc3cc(Cl)ccc3[nH]2)c2ccccc12 [Compound 15] | > 10
CC(=O)n1cc(NC(=O)Nc2cn(C(C)=O)c3ccccc23)c2ccccc21 [Compound 20, 1,3-bis(1-acetyl-1H-indol-3-yl)urea] | > 10
CC(=O)c1cn(CC(=O)N2C[C@H](F)C[C@H]2Cn2cc(-c3ccc(F)cc3)nn2)c2ccccc12 [Compound 27, 2-(3-acetyl-1H-indol-1-yl)-1-((2S,4R)-4-fluoro-2-((4-(4-fluorophenyl)-1H-1,2,3-triazol-1-yl)methyl)pyrrolidin-1-yl)ethanone] | > 10
NC(=O)n1cc(NC(=O)N2C[C@H](F)C[C@H]2Cn2cc(-c3ccc(F)cc3)nn2)c2ccccc21 [Compound 28, 3-((2S,4R)-4-fluoro-2-((4-(4-fluorophenyl)-1H-1,2,3-triazol-1-yl)methyl)pyrrolidine-1-carboxamido)-1H-indole-1-carboxamide] | > 10
NC(=O)N1C[C@H](F)C[C@H]1Cn1cc(-c2ccc(F)c(Cl)c2)nn1 [Compound 30, (2S,4R)-2-((4-(3-chloro-4-fluorophenyl)-1H-1,2,3-triazol-1-yl)methyl)-4-fluoropyrrolidine-1-carboxamide] | > 10
CC(=O)c1cn(CC(=O)N2C[C@H](F)C[C@H]2C(=O)N2Cc3ccccc3C2)c2ccccc12 [Compound 33, 2-(3-acetyl-1H-indol-1-yl)-1-((2S,4R)-4-fluoro-2-(isoindoline-2-carbonyl)pyrrolidin-1-yl)ethanone] | > 10

The remaining lines, values ahead:

IC50 [µM] | SMILES
> 10 | CC(=O)n1cc(NC(=O)[C@@H]2C[C@@H](F)CN2C(=O)NCc2cccc(Cl)c2F)c2ccccc21 [Compound 3, (2S,4R)-N2-(1-acetyl-1H-indol-3-yl)-N1-(3-chloro-2-fluorobenzyl)-4-fluoropyrrolidine-1,2-dicarboxamide]
> 10 | CC(=O)n1cc(NC(=O)[C@@H]2C[C@H](F)CN2C(=O)NCc2cccc(Cl)c2F)c2ccccc21 [Compound 4, (2S,4S)-N2-(1-acetyl-1H-indol-3-yl)-N1-(3-chloro-2-fluorobenzyl)-4-fluoropyrrolidine-1,2-dicarboxamide]
> 10 | CC(=O)n1cc(NC(=O)[C@@H]2C[C@H](F)CN2C(=O)NCc2ccccc2)c2ccccc21 [Compound 5, (2S,4S)-N2-(1-acetyl-1H-indol-3-yl)-N1-benzyl-4-fluoropyrrolidine-1,2-dicarboxamide]
> 10 | NC(=O)n1cc(NC(=O)N2C[C@H](F)C[C@H]2C(=O)NS(=O)(=O)c2cccc(Cl)c2F)c2ccccc21 [Compound 6, (2S,4R)-N1-(1-carbamoyl-1H-indol-3-yl)-N2-(3-chloro-2-fluorophenylsulfonyl)-4-fluoropyrrolidine-1,2-dicarboxamide]
> 10 | CC(=O)n1cc(NC(=O)N2C[C@H](F)C[C@H]2C(=O)NS(=O)(=O)c2cccc(Cl)c2F)c2ccccc21 [Compound 7, (2S,4R)-N1-(1-acetyl-1H-indol-3-yl)-N2-(3-chloro-2-fluorophenylsulfonyl)-4-fluoropyrrolidine-1,2-dicarboxamide]
> 10 | CC(=O)n1cc(NC(=O)[C@H]2CC(F)(F)CN2C(=O)NCc2cccc(Cl)c2F)c2ccccc21 [Compound 8, (R)-N2-(1-acetyl-1H-indol-3-yl)-N1-(3-chloro-2-fluorobenzyl)-4,4-difluoropyrrolidine-1,2-dicarboxamide]
> 10 | CC(=O)n1cc(NC(=O)[C@H]2CCCN2C(=O)NCc2cccc(Cl)c2F)c2ccccc21 [Compound 9, (R)-N2-(1-acetyl-1H-indol-3-yl)-N1-(3-chloro-2-fluorobenzyl)pyrroli-dine-1,2-dicarboxamide]
> 10 | CC(=O)n1cc(NC(=O)[C@H]2CCCN2C(=O)Nc2cccc(OC(F)(F)F)c2F)c2ccccc21 [Compound 16, (R)-N2-(1-acetyl-1H-indol-3-yl)-N1-(2-fluoro-3-(trifluoromethoxy)phenyl)pyrrolidine-1,2-dicarboxamide]
> 10 | CC(=O)n1cc(NC(=O)[C@H]2CC(F)(F)CN2C(=O)Cc2cccc(Cl)c2F)c2ccccc21 [Compound 17, (R)-N-(1-acetyl-1H-indol-3-yl)-1-(2-(3-chloro-2-fluorophenyl)acetyl)-4,4-difluoropyrrolidine-2-carboxamide]
< 1 | CC(=O)c1cn(CC(=O)N2CC[C@@H](OCC3CC3)[C@H]2C(=O)NCc2cccc(Cl)c2F)c2ccccc12 [Compound 18, (2S,3R)-1-(2-(3-acetyl-1H-indol-1-yl)acetyl)-N-(3-chloro-2-fluorobenzyl)-3-(cyclopropylmethoxy) pyrrolidine-2-carboxamide]
> 10 | COc1ccc2c(O[C@@H]3C[C@@H](C(=O)NCc4cccc(Cl)c4F)N(C(=O)Nc4cn(C(C)=O)c5ccccc45)C3)cc(-c3ccccc3)nc2c1 [Compound 19, (2S,4R)-N1-(1-acetyl-1H-indol-3-yl)-N2-(3-chloro-2-fluorobenzyl)-4-(7-methoxy-2-phenylquinolin-4-yloxy)pyrrolidine-1,2-dicarboxamide]
< 1 | O=C(c1cn(CC(=O)N2C[C@H](F)C[C@H]2C(=O)NCc2cccc(Cl)c2F)c2ccccc12)C1CC1 [Compound 24, (2S,4R)-N-(3-chloro-2-fluorobenzyl)-1-(2-(3-(cyclopropanecarbonyl)-1H-indol-1-yl)acetyl)-4-fluoropyrrolidine-2-carboxamide]
> 10 | NC(=O)N1CC(NC(=O)[C@@H]2CCC[C@H]2C(=O)NCc2cccc(Cl)c2F)c2ccccc21 (stereo partly drawn) [Compound 26, (1R,2R)-N1-(1-carbamoylindolin-3-yl)-N2-(3-chloro-2-fluorobenzyl)cyclo-pentane-1,2-dicarboxamide]
> 10 | NC(=O)n1cc(NC(=O)C2=C(C(=O)NCc3cccc(Cl)c3F)CCC2)c2ccccc21 [Compound 31, N1-(1-carbamoyl-1H-indol-3-yl)-N2-(3-chloro-2-fluorobenzyl)cyclo-pent-1-ene-1,2-dicarboxamide]
> 10 | CC(=O)c1cn(CC(=O)N2C[C@H](F)C[C@H]2C(=O)N(C)Cc2cccc(Cl)c2F)c2ccccc12 [Compound 34, (2S,4R)-1-(2-(3-acetyl-1H-indol-1-yl)acetyl)-N-(3-chloro-2-fluorobenzyl)-4-fluoro-N-methylpyrrolidine-2-carboxamide]
< 1 | N#Cc1cn(CC(=O)N2C[C@H](F)C[C@H]2C(=O)NCc2cccc(Cl)c2F)c2ccccc12 [Compound 36, (2S,4R)-N-(3-chloro-2-fluorobenzyl)-1-(2-(3-cyano-1H-indol-1-yl)acetyl)-4-fluoropyrrolidine-2-carboxamide]
< 1 | O=C1CCCc2c1c1ccccc1n2CC(=O)N1C[C@H](F)C[C@H]1C(=O)NCc1cccc(Cl)c1F [Compound 37, (2S,4R)-N-(3-chloro-2-fluorobenzyl)-4-fluoro-1-(2-(4-oxo-3,4-dihydro-1H-carbazol-9(2H)-yl)acetyl)pyrrolidine-2-carboxamide]
> 10 | CC(C)(C)OC(=O)N[C@@H](Cc1c[nH]c2ccccc12)C(=O)N1C[C@H](F)C[C@H]1C(=O)NCc1cccc(Cl)c1F [Compound 38, tert-butyl (S)-1-((2S,4R)-2-(3-chloro-2-fluorobenzylcarbamoyl)-4-fluoropyrrolidin-1-yl)-3-(1H-indol-3-yl)-1-oxopropan-2-ylcarbamate]
